Test results from US20250304571A1, “BIOLOGICALLY ACTIVE COMPOUNDS AND METHODS THEREOF” (Suzhou Keen Therapeutics Co., Ltd., priority 2022, published 2025).
Like-named read-outs stand apart in the source and are kept apart here.

Columns and labels:
Format in all cases: cell-based
[1] = test system: KP4 (pancreatic ductal adenocarcinoma) cells; assay: Cell viability (CellTiter Glo) assay, inhibition of KP4 cell proliferation; details: Homo sapiens, read-out: IC50, inhibition of KP4 cell proliferation
[2] = test system: 786-O (renal cell carcinoma) cells; assay: Cell viability (CellTiter Glo) assay, inhibition of 786-O cell proliferation; details: Homo sapiens, read-out: IC50, inhibition of 786-O cell proliferation
786-O cells = assay: Anti-proliferation activity in 786-O cells in the presence of a ferroptosis inhibitor (Ferrostatin-1 or Liproxstatin-1); details: Homo sapiens
Method: In one assessment, cells (KP4, 786-0 and HT-1080) were seeded (700 cells/well, 1000 cells/well or 3000 cells/well) in 384-well or 96-well plates and incubated at 37° C./5% CO2 for 22-24 hours. A series of 8 different concentrations of compound stocks were created by 5-fold serial dilution in DMSO. These compounds were further diluted in culture media and were then added to cells (final concentrations: 100 μM, 20 μM, 4 μM, 0.8 μM, 0.16 μM, […].). After 72 hours of incubation, 30 μL of CellTiter Glo reagent (Promega) was added to each well and luminescence was measured after 10 minutes using SpectraMax M5/M5e (Molecular Devices). Luminescence from cells treated with DMSO alone was set as background and % of inhibition was calculated as follows: […]
Anti-proliferation activity of various compounds was also tested in the presence of an ferroptosis inhibitor, Ferrostatin-1 (2 μM) or Liproxstatin-1 (2 μM). Certain results are provided in Table 4 and Table 5 as examples. “A” indicates an IC50≤100 nM; “B” indicates an IC50 of >100 nM and ≤500 nM; “C” indicates an IC50>500 nM and ≤5 μM; and “D” indicates an IC50>5 μM.

[3] = test system: HT-1080 (fibrosarcoma) cells; assay: Cell viability (CellTiter Glo) assay, inhibition of HT-1080 cell proliferation; details: Homo sapiens, HT-1080 cells, 72 hours
[4] = KP-4, KP4 cells, 72 hours, CellTiter Glo
[5] = 786-0, 786-O cells, 72 hours, CellTiter Glo
[6] = 786-0, 72 h, no ferroptosis inhibitor, read-out: IC50, No Ferroptosis Inhibitor (Table 5)

SMILES	IC50 [1, 4]	IC50 [2, 5]	also measured
CCCC[C@H]1Cc2cc(OC)ccc2[C@H](c2ccc(F)cc2)N1C(=O)COC(=N)N(C)C [Compound A1]	100 to 500 nM	–	–
CCCC[C@H]1Cc2cc(OC)ccc2[C@H](c2ccc(F)cc2)N1C(=O)COC(=N)N1CCN(C)C(=O)C1 [Compound A2]	> 5000 nM	500 to 5000 nM	–
CN(C)C(=N)OCc1ncc2ccn(-c3ccc(Oc4ccccc4)cc3)c2n1 [Compound D1]	100 to 500 nM	–	–
N=C(OCc1nc(Nc2ccc(Oc3ccccc3)cc2)c2cc[nH]c2n1)N1CCOCC1 [Compound D4]	500 to 5000 nM	100 to 500 nM	–
N=C(OCc1nc(Nc2ccc(Oc3ccccc3)cc2)c2cc[nH]c2n1)N1CCCCC1 [Compound D5]	100 to 500 nM	100 to 500 nM	–
N=C(OCc1nc(Nc2ccc(Oc3ccccc3)cc2)c2cc[nH]c2n1)N1CCC(F)(F)CC1 [Compound D6]	100 to 500 nM	100 to 500 nM	IC50 (786-O cells; 786-0, Ferrostatin-1 (2 μM), read-out: IC50, With Ferrostatin-1): > 5000 nM; IC50 (786-O cells; 786-0, no ferroptosis inhibitor, read-out: IC50, No Ferroptosis Inhibitor (Table 4)): 100 to 500 nM
CN1CCN(C(=N)OCc2nc(Nc3ccc(Oc4ccccc4)cc3)c3cc[nH]c3n2)CC1=O [Compound D7]	500 to 5000 nM	500 to 5000 nM	–
N=C(OCc1nc(Nc2ccc(Oc3ccccc3)cc2)c2cc[nH]c2n1)N1CCCC(F)(F)C1 [Compound D8]	500 to 5000 nM	100 to 500 nM	–
CN(C)C(=N)OCc1nc(Nc2ccc(Oc3ccccc3)cc2)c2cn[nH]c2n1 [Compound D10]	500 to 5000 nM	–	–
CN(C)C(=N)OCc1nc(N)c2c(n1)N(c1ccc(Oc3ccccc3)cc1)CC2(C)C [Compound E1]	–	–	IC50 (786-O cells; [6]): < 100 nM; IC50 ([2]; 786-0, 72 h): < 100 nM
CC1(C)CN(c2ccc(Oc3ccccc3)cc2)c2nc(COC(=N)N3CCCCC3C(F)(F)F)nc(N)c21 (centres unmarked) [Compound E4]	–	< 100 nM	IC50 [3]: < 100 nM
C[C@@H]1CN(c2ncc(N3C(=O)C4(CCCC4)c4c(N)nc(COC(=N)N5CCC[C@@H]5C(F)(F)F)nc43)cn2)C[C@H](C)O1 [Compound E87, (4′-amino-7′-(2-((2S,6R)-2,6-dimethylmorpholino)pyrimidin-5-yl)-6′-oxo-6′,7′-dihydrospiro[cyclopentane-1,5′-pyrrolo[2,3-d]pyrimidin]-2′-yl)methyl (R)-2-(trifluoromethyl)pyrrolidine-1-carbimidate]	–	< 100 nM	IC50 (786-O cells; [6]): < 100 nM
CNc1nc(COC(=N)N2CCC[C@@H]2C(F)(F)F)nc2c1C1(CCCC1)C(=O)N2c1cnc(N2C[C@@H](C)O[C@@H](C)C2)nc1 [Compound E88, (7′-{2-[(2R,6S)-2,6-dimethylmorpholin-4-yl]pyrimidin-5-yl}-4′-(methylamino)-6′-oxo-6′,7′-dihydrospiro[cyclopentane-1,5′-pyrrolo[2,3-d]pyrimidin]-2′-yl)methyl (2R)-2-(trifluoromethyl)pyrrolidine-1-carboximidate]	–	< 100 nM	IC50 (786-O cells; [6]): < 100 nM
N=C(OCc1nc(N)c2c(n1)N(c1cnc(N3C4CCC3COC4)nc1)C(=O)C21CCCC1)N1CCC[C@@H]1C(F)(F)F [Compound E93]	–	< 100 nM	IC50 (786-O cells; [6]): < 100 nM
CNc1nc(COC(=N)N2CCC[C@@H]2C(F)(F)F)nc2c1C1(CCCC1)C(=O)N2c1cnc(N2C3CCC2COC3)nc1 [Compound E94]	–	< 100 nM	IC50 (786-O cells; [6]): < 100 nM
CNc1nc(COC(=N)N2CCOCC2C(F)(F)F)nc2c1C1(CCCC1)C(=O)N2c1cnc(N2C[C@@H](C)O[C@@H](C)C2)nc1 (some centres unmarked) [Compound E97]	–	100 to 500 nM	IC50 (786-O cells; [6]): 100 to 500 nM
CNc1nc(COC(=N)N2CCC[C@@H]2C(F)(F)F)nc2c1C1(CCCC1)C(=O)N2c1cnc(C2CCOCC2)nc1 [Compound E99]	–	500 to 5000 nM	IC50 (786-O cells; [6]): 500 to 5000 nM
N=C(OCc1nc(N)c2c(n1)N(c1cnc(C3CCOCC3)nc1)C(=O)C21CCCC1)N1CCC[C@@H]1C(F)(F)F [Compound E100, (4′-amino-6′-oxo-7′-(2-(tetrahydro-2H-pyran-4-yl)pyrimidin-5-yl)-6′,7′-dihydrospiro[cyclopentane-1,5′-pyrrolo[2,3-d]pyrimidin]-2′-yl)methyl (R)-2-(trifluoromethyl)pyrrolidine-1-carbimidate]	–	100 to 500 nM	IC50 (786-O cells; [6]): 100 to 500 nM
CC(C)Oc1ccc(Nc2nc(N)nc(COC(=N)N(C)C)n2)cc1 [Compound F1]	500 to 5000 nM	–	–
N=C(OCc1nc(N)nc(Nc2ccc(Oc3ccccc3)cc2)n1)N1CCCCC1 [Compound F4, (4-amino-6-((4-phenoxyphenyl)amino)-1,3,5-triazin-2-yl)methyl piperidine-1-carbimidate]	< 100 nM	–	–
CN(C)C(=N)OCc1nc(N)nc(Nc2ccc3ccccc3c2)n1 [Compound F5]	100 to 500 nM	100 to 500 nM	–
CN1CCN(C(=N)OCc2nc(N)nc(Nc3ccc(Oc4ccccc4)cc3)n2)CC1 [Compound F7]	100 to 500 nM	100 to 500 nM	–
N=C(OCc1nc(N)nc(Nc2ccc(Oc3ccccc3)cc2)n1)N1CCCCC1C(F)(F)F (centres unmarked) [Compound F12]	–	< 100 nM	IC50 (786-O cells; [6]): < 100 nM
N=C(OCc1nc(N)nc(Nc2ccc(Oc3ccccc3)cc2)n1)N1CCCCC1=O [Compound F18]	–	–	IC50 [3]: 500 to 5000 nM
C#CCOc1cccc(Oc2ccc(Nc3nc(N)nc(COC(=N)N4CCC(F)(F)CC4)n3)cc2)c1 [Compound F21]	–	< 100 nM	IC50 (786-O cells; [6]): < 100 nM

SMILES	IC50 [1, 4]	IC50 [2, 5]	also measured
Nc1nc(CO/C(=N\C2CCCCC2)NC2CCCCC2)nc(Nc2ccc(Oc3ccccc3)cc2)n1 [Compound F23]	–	–	IC50 ([1]; KP-4, 72 h): 500 to 5000 nM; IC50 ([2]; 786-0, 72 h): 100 to 500 nM
CC(C)/N=C(/NC(C)C)OCc1nc(N)nc(Nc2ccc(Oc3ccccc3)cc2)n1 [Compound F24]	500 to 5000 nM	100 to 500 nM	–
N=C(N)OCc1nc(N)nc(Nc2ccc(Oc3ccccc3)cc2)n1 [Compound F26]	–	–	IC50 ([1]; KP-4, 72 h): > 5000 nM
N=C(OCc1nc(N)nc(Nc2ccc(Oc3ccccc3)cc2)n1)N1CCS(=O)(=O)CC1 [Compound F27]	100 to 500 nM	–	–
C[C@@H]1CN(C(=N)OCc2nc(N)nc(Nc3ccc(Oc4ccccc4)cc3)n2)C[C@H](C)N1C(=O)OC(C)(C)C [Compound F32]	< 100 nM	–	–
CN1CCN(C(=N)OCc2nc(N)nc(Nc3ccc(Oc4ccccc4)cc3)n2)CC1=O [Compound F33]	100 to 500 nM	–	–
CN(C)C(=N)OCc1nccc(Nc2ccc(Oc3ccccc3)cc2)n1 [Compound F35]	100 to 500 nM	500 to 5000 nM	–
CN(C)C(=N)OCc1nc(N)cc(Nc2ccc(Oc3ccccc3)cc2)n1 [Compound F36]	–	–	IC50 ([1]; KP-4, 72 h): 500 to 5000 nM
CN(C)C(=N)OCc1nccc(N2CCCCC2c2ccc(Oc3ccccc3)cc2)n1 (centres unmarked) [Compound F38]	> 5000 nM	–	–
CCN(CC(F)(F)F)C(=N)OCc1cc(Nc2ccc(Oc3ccccc3)cc2)ncn1 [Compound F39]	–	500 to 5000 nM	–
CCN(CC(F)(F)F)C(=N)OCc1nccc(Nc2ccc(Oc3ccccc3)cc2)n1 [Compound F40]	–	100 to 500 nM	–
CCN(C(=N)OCc1nc(N)nc(Nc2ccc(Oc3ccccc3)cc2)n1)c1ccncc1 [Compound F41]	–	< 100 nM	–
CCN(C(=N)OCc1nc(N)nc(Nc2ccc(Oc3ccccc3)cc2)n1)c1ccccn1 [Compound F42]	–	< 100 nM	–
N=C(OCc1nc(N)nc(Nc2ccc(Oc3ccccc3)cc2)n1)N1CCCCO1 [Compound F43]	–	–	IC50 ([2]; 786-0, 72 h): 100 to 500 nM
N=C(OCc1nc(N)nc(Nc2ccc(Oc3ccccc3)cc2)n1)N1CCCO1 [Compound F44]	–	100 to 500 nM	–
CCN(CC(F)(F)F)C(=N)OCc1nc(N)nc(Nc2ccc(Oc3ccccc3)cc2)n1 [Compound F45]	–	< 100 nM	–
C#CCOc1cccc(Oc2ccc(Nc3nc(N)nc(COC(=N)N4CCCCC4C(F)(F)F)n3)cc2)c1 (centres unmarked) [Compound F46]	–	< 100 nM	–
C#CCOc1cccc(Oc2ccc(Nc3nc(N)nc(COC(=N)N(CC)c4ccccn4)n3)cc2)c1 [Compound F47]	–	< 100 nM	–
CCN(CC(F)(F)F)C(=N)OCc1cc(Nc2ccc(Oc3ccccc3)cc2)cnn1 [Compound F48]	–	500 to 5000 nM	–
CCN(CC(F)(F)F)C(=N)OCc1nccc(Nc2ccc(N3CCOCC3)nc2)n1 [Compound F49]	–	500 to 5000 nM	–
CCN(CC(F)(F)F)C(=N)OCc1ncc(C#N)c(Nc2ccc(Oc3ccccc3)cc2)n1 [Compound F50]	–	500 to 5000 nM	–
N=C(OCc1nc(N)nc(Nc2ccc(Oc3ccccc3)cc2)n1)N(CC(F)(F)F)C1CCOCC1 [Compound F51]	–	< 100 nM	–
Nc1nc(COc2nc(=O)[nH]c(=O)[nH]2)nc(Nc2ccc(Oc3ccccc3)cc2)n1 [Compound F53]	–	> 5000 nM	–
CCN(CC(F)(F)F)C(=N)OCc1ncc(C#N)c(Nc2ccc(Oc3ccccc3)cc2)c1F [Compound F54]	–	500 to 5000 nM	–
N=C(OCc1nc(N)nc(Nc2ccc(N3CCOCC3)cc2)n1)N1CCC[C@@H]1C(F)(F)F [Compound F55, (4-amino-6-((4-morpholinophenyl)amino)-1,3,5-triazin-2-yl) methyl(R)-2-(trifluoromethyl) pyrrolidine-1-carbimidate]	–	100 to 500 nM	–
